The record followed here is patent US20040034076A1, “Novel carbamates and carbamides, production and use thereof as endothelin receptor antagonists” (priority 2000, published 2004).

Molecules are shown by their SMILES.

One assay deals with T1, human ETA receptor (Homo sapiens, UniProt P25101).
T1 construct: expressed in transfected cells; host or cells: CHO cells
T1 sequence (P25101 21-427): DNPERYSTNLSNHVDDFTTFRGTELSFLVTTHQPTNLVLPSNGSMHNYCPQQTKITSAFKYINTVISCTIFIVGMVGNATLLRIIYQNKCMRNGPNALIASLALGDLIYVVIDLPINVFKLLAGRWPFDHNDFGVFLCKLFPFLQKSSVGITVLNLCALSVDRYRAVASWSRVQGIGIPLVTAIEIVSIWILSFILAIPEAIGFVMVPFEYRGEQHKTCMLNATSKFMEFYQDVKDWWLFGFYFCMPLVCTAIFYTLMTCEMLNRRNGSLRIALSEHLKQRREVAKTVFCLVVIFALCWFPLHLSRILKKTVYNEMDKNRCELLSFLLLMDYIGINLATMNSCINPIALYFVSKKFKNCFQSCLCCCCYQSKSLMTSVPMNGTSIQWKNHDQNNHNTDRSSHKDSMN
Nature of the assay: ETA receptor binding test ([125J]-ET1, CHO cell membranes). The note with it: cloned human ETA receptor-expressing CHO cell membranes, 25 pM [125J]-ET1, 25° C., 30 min. As to the method:
(§1) For binding studies, cloned human ETA or ETB receptor-expressing CHO cells were employed.
(§2) The ETA or ETB receptor-expressing CHO cells were proliferated in DMEM NUT MIX F12 medium (Gibco, No. 21331-020) using 10% fetal calf serum (PAA Laboratories GmbH, Linz, No. A15-022), 1 mM glutamine (Gibco No. 25030-024), 100 U/ml of penicillin and 100 μg/ml of streptomycin (Gibco, Sigma No P-0781). After 48 hours, the cells were washed with PBS and incubated at 37° C. for 5 minutes with 0.05% trypsin-containing PBS. Neutralization was then carried out with medium and the cells were collected by centrifugation at 300×g.
(§3) For membrane preparation, the cells were adjusted to a concentration of 10^8 cells/ml of buffer (50 mM tris-HCl buff r, pH 7.4) and then disintegrated by ultrasound (Branson Sonifier 250, 40-70 seconds/constant/output 20).
(§4) For the ETA and ETB receptor binding test, the membranes were suspended in incubation buffer (50 mM tris HCl, pH 7.4 with 5 mM MnCl2, 40 mg/ml of bacitracin and 0.2% of BSA) in a concentration of 50 μg of protein per test batch and incubated at 25° C. with 25 pM of [125J]-ET1 (ETA receptor test) or 25 pM of [125I)-ET3 (ETB receptor test) in the presence and absence of test substance. The nonspecific binding was determined using 10^−7 M ET1. After 30 min, the free and the bound radioligand was separated by filtration through GF/B glass fiber filters (Whatman, England) on a Skatron cell collector (Skatron, Lier, Norway) and the filters were washed with ice-cold tris HCl buffer, pH 7.4 with 0.2% of BSA. The radioactivity collected on the filters was quantified using a Packard 2200 CA liquid scintillation counter.

The next assay concerns the target T2, human ETB receptor (Homo sapiens, UniProt P24530).
T2 construct: expressed in transfected cells; host or cells: CHO cells
T2 sequence (P24530 27-442): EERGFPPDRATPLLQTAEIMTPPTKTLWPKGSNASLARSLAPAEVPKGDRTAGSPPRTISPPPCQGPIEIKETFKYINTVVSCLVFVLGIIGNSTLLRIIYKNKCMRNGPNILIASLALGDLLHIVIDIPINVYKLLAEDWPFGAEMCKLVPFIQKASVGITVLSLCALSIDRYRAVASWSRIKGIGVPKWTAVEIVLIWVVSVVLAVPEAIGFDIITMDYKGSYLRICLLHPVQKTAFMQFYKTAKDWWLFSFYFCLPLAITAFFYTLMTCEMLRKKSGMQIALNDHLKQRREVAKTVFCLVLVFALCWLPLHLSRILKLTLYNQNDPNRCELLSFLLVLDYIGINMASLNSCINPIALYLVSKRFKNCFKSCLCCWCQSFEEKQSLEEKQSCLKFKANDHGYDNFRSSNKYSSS
Nature of the assay: ETB receptor binding test ([125I]-ET3, CHO cell membranes). The note with it: cloned human ETB receptor-expressing CHO cell membranes, 25 pM [125I]-ET3, 25° C., 30 min. Here is the method: as §1, §2, §3, §4

With `COc1cc(OC)nc(OC(C(=O)O)C(NC(=O)N(C)C)(c2ccccc2)c2ccccc2)n1` (stereo not drawn) [Compound I-11, 2-[(4,6-Dimethoxy-2-pyrimidinyl)oxy]-N-[(dimethylamino)carbonyl]-3,3-diphenyl-β-alanine], the Ki at human ETA receptor was 397 nM; at human ETB receptor it was above 10000 nM.

With `COc1ccc(CN(C)C(=O)NC(c2ccccc2)(c2ccccc2)C(Oc2nc(OC)cc(OC)n2)C(=O)O)cc1` (stereo not drawn) [Compound I-23, 2-[(4,6-Dimethoxy-2-pyrimidinyl)oxy]-N-{[(4-methoxybenzyl)-(methyl)amino]carbonyl}-3,3-diphenyl-β-alanine], the figures for the Ki at human ETA receptor and at human ETB receptor were 147 nM and 6620 nM, respectively.

Consider `Cc1cc(C)nc(OC(C(=O)O)C(NC(=O)N2CCCC2)(c2ccccc2)c2ccccc2)n1` (stereo not drawn) [Compound I-26, 2-[(4,6-Dimethyl-2-pyrimidinyl)oxy]-3,3-diphenyl-N-(1-pyrrolidinylcarbonyl)-β-alanine], for which the Ki on human ETA receptor was found to be 53 nM; at human ETB receptor, 3850 nM.

In the case of `Cc1cc(C)nc(OC(C(=O)O)C(NC(=O)N2CCCCC2)(c2ccccc2)c2ccccc2)n1` (stereo not drawn) [Compound I-52, 2-[(4,6-Dimethyl-2-pyrimidinyl)oxy]-3,3-diphenyl-N-(1-piperidinylcarbonyl)-β-alanine], the results for the Ki on human ETA receptor and on human ETB receptor were 73 nM and 4220 nM, respectively.

As for `Cc1cc(C)nc(OC(C(=O)O)C(NC(=O)N2CCOCC2)(c2ccccc2)c2ccccc2)n1` (stereo not drawn) [Compound I-75, 2-[(4,6-Dimethyl-2-pyrimidinyl)oxy]-N-(4-morpholinylcarbonyl)-3,3-diphenyl-β-alanine], the Ki at human ETA receptor came out at 117 nM; on human ETB receptor, 3450 nM.

Turning to `CCN(CC)C(=O)NC(c1ccccc1)(c1ccccc1)C(Oc1nc(OC)cc(OC)n1)C(=O)O` (stereo not drawn) [Compound I-86, N-[(Diethylamino)carbonyl]-2-[(4,6-dimethoxy-2-pyrimidinyl)oxy]-3,3-diphenyl-β-alanine], the Ki on human ETA receptor was 253 nM; at human ETB receptor it was above 10000 nM.

With `COc1ccc(N(C)C(=O)NC(c2ccccc2)(c2ccccc2)C(Oc2nc(OC)cc(OC)n2)C(=O)O)cc1` (stereo not drawn) [Compound I-121, 2-[(4,6-Dimethoxy-2-pyrimidinyl)oxy]-N-{[4-methoxy(methyl)-anilino]carbonyl}-3,3-diphenyl-β-alanine], the results for the Ki at human ETA receptor and on human ETB receptor were 310 nM and at least 10000 nM, respectively.

Take `COc1cc(OC)nc(OC(C(=O)O)C(NC(=O)OCc2ccccc2)(c2ccccc2)c2ccccc2)n1` (stereo not drawn) [Compound I-140, N-[(Benzyloxy)carbonyl]-2-[(4,6-dimethoxy-2-pyrimidinyl)oxy]-3,3-diphenyl-β-alanine]: the inhibition constant Ki was 97 nM at human ETA receptor and 2340 nM at human ETB receptor.

Regarding `COc1cc(OC)nc(OC(C(=O)O)C(NC(=O)N(C)c2ccccc2)(c2ccccc2)c2ccccc2)n1` (stereo not drawn) [Compound I-155, 2-[(4,6-Dimethoxy-2-pyrimidinyl)oxy]-N-[(methylanilino)carbonyl]-3,3-diphenyl-β-alanine], the Ki at human ETA receptor was found to be 265 nM; on human ETB receptor it was 5770 nM.

Regarding `COc1cc(OC)nc(OC(C(=O)O)C(NC(=O)Oc2ccc(C)c(C)c2)(c2ccccc2)c2ccccc2)n1` (stereo not drawn) [Compound I-168, 2-[(4,6-Dimethoxy-2-pyrimidinyl)oxy]-N-[(3,4-dimethylphenoxy)-carbonyl]-3,3-diphenyl-β-alanine], the inhibitory constant (Ki) at human ETA receptor was found to be 105 nM; at human ETB receptor it was 730 nM.

For the compound `COc1ccc(OC(=O)NC(c2ccccc2)(c2ccccc2)C(Oc2nc(OC)cc(OC)n2)C(=O)O)cc1` (stereo not drawn) [Compound I-170, 2-[(4,6-Dimethoxy-2-pyrimidinyl)oxy]-N-[(4-methoxyphenoxy)-carbonyl]-3,3-diphenyl-β-alanine], the Ki on human ETA receptor was 120 nM; at human ETB receptor, 1930 nM.

With `COc1ccc(CN(C)C(=O)NC(c2ccccc2)(c2ccccc2)C(Oc2nc(C)cc(C)n2)C(=O)O)cc1` (stereo not drawn) [Compound I-194, 2-[(4,6-Dirnethyl-2-pyrimidinyl)oxy]-N-{[(4-methoxybenzyl)-(methyl)amino]carbonyl}-3,3-diphenyl-β-alanine], the results for the inhibitory constant (Ki) on human ETA receptor and on human ETB receptor were 14 nM and 2330 nM, respectively.

For `Cc1cc(C)nc(OC(C(=O)O)C(NC(=O)N(C)C2CCCCC2)(c2ccccc2)c2ccccc2)n1` (stereo not drawn) [Compound I-202, N-{[Cyclohexyl(methyl)amino]carbonyl}-2-[(4,6-dimethyl-2-pyrimidinyl)oxy]-3,3-diphenyl-β-alanine], the figures for the Ki on human ETA receptor and at human ETB receptor were 19 nM and 195 nM, respectively.

For the compound `COC(=O)NC(c1ccccc1)(c1ccccc1)C(Oc1nc(OC)cc(OC)n1)C(=O)O` (stereo not drawn) [Compound I-230, 2-[(4,6-Dimethoxy-2-pyrimidinyl)oxy]-N-(methoxycarbonyl)-3,3-diphenyl-β-alanine], the figures for the inhibitory constant (Ki) on human ETA receptor and at human ETB receptor were 89 nM and above 10000 nM, respectively.

On to `COc1cc(OC)nc(OC(C(=O)O)C(NC(=O)N(C)Cc2ccccc2)(c2ccccc2)c2ccccc2)n1` (stereo not drawn) [Compound I-260, N-{[Benzyl(methyl)amino]carbonyl}-2-[(4,6-dimethoxy-2-pyrimidinyl)oxy]-3,3-diphenyl-β-alanine], for which the figures for the inhibitory constant (Ki) at human ETA receptor and on human ETB receptor were 235 nM and 2440 nM, respectively.

As for `COc1cc(OC)nc(OC(C(=O)O)C(NC(=O)OCc2cc(OC)c(OC)cc2[N+](=O)[O-])(c2ccccc2)c2ccccc2)n1` (stereo not drawn) [Compound I-266, N-{[(4,5-Dimethoxy-2-nitrobenzyl)oxy]carbonyl}-2-((4,6-dimethoxy-2-pyrimidinyl)oxy]-3,3-diphenyl-β-alanine], the figures for the inhibition constant (Ki) on human ETA receptor and on human ETB receptor were 13 nM and 1090 nM, respectively.
